Source: US8637511B2, “Aminopyrimidines useful as kinase inhibitors” (Vertex Pharmaceuticals Incorporated, priority 2005, dated 2014)
“And” between values parts separate entries of the source, which are not always exact repeats. Identical values can stand only once. Like-named read-outs stand apart in the source and are kept apart here.

Columns and labels:
Aurora-1 (Aurora B) = Aurora-1 (Aurora B) (Homo sapiens, UniProt Q96GD4); assay: Aurora-1 (Aurora B) inhibition assay (radiometric); type: biochemical; conditions: read-out: Aurora B kinase Ki value
Experimental: An assay buffer solution was prepared which consisted of 25 mM HEPES (pH 7.5), 10 mM MgCl2, 0.1% BSA and 10% glycerol. […] To 22 μL of the Aurora-B solution, in a 96-well plate, was added 2 μl of a compound stock solution in DMSO and the mixture allowed to equilibrate for 10 minutes at 25° C. The enzyme reaction was initiated by the addition of 16 μl stock [γ-^33P]-ATP solution (˜20 nCi/μL) prepared in assay buffer, to a final assay concentration of 800 μM. The reaction was stopped after 3 hours by the addition of 16 μL 500 mM phosphoric acid and the levels of ^33P incorporation into the peptide substrate were determined by the following method.
A phosphocellulose 96-well plate (Millipore, Cat no. MAPHNOB50) was pre-treated with 100 μL of a 100 mM phosphoric acid prior to the addition of the enzyme reaction mixture (40 μL). The solution was left to soak on to the phosphocellulose membrane for 30 minutes and the plate subsequently washed four times with 200 μL of a 100 mM phosphoric acid. […] Levels of non-enzyme catalyzed background radioactivity were determined by adding 16 μL of the 500 mM phosphoric acid to control wells, containing all assay components (which acts to denature the enzyme), prior to the addition of the [γ-^33P]-ATP solution. Levels of enzyme catalyzed. ^33P incorporation were calculated by subtracting mean background counts from those measured at each inhibitor concentration. […] Ki values were calculated from initial rate data by non-linear regression using the Prism software package (Prism 3.0, Graphpad Software, San Diego, Calif.).

Colo205 cells = assay: Analysis of cell proliferation and viability; type: cell-based; conditions: Homo sapiens, read-out: IC50 value
Experimental: Colo205 cells were seeded in 96 well plates and serially diluted compound was added to the wells in duplicate. Control groups included untreated cells, the compound diluent (0.1% DMSO alone) and culture medium without cells.
To measure proliferation, 3 h prior to the end of the experiment 0.5 μCi of 3H thymidine was added to each well. Cells were then harvested and the incorporated radioactivity counted on a Wallac microplate beta-counter. Cell viability was assessed using Promega CellTiter 96AQ to measure MTS conversion. Dose response curves were calculated using either Prism 3.0 (GraphPad) or SoftMax Pro 4.3.1 LS (Molecular Devices) software.

Aurora-2 (Aurora A) = biological target: T1, Aurora-2 (Aurora A) (Homo sapiens, UniProt O14965); assay: Aurora-2 (Aurora A) inhibition assay, coupled enzyme; type: biochemical; conditions: read-out: Aurora A kinase Ki value
T1 sequence (O14965 1-403): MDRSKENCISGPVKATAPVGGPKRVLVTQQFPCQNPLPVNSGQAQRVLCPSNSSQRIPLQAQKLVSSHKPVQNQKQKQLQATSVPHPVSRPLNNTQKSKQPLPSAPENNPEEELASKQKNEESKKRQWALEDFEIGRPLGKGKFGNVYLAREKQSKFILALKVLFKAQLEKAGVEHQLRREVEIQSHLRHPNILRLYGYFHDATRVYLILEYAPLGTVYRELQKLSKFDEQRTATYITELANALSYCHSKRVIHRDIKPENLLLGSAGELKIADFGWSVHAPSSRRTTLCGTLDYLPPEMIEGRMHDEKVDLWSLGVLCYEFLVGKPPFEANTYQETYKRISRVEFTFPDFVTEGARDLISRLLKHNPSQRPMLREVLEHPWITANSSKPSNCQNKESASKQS
Experimental: Assays were carried out in a mixture of 100 mM Hepes (pH7.5), 10 mM MgCl2, 1 mM DTT, 25 mM NaCl, 2.5 mM phosphoenolpyruvate, 300 μM NADH, 30 μg/ml pyruvate kinase and 10 μg/ml lactate dehydrogenase. […] Assays were carried out at 30° C. and in the presence of 40 nM Aurora-2.
The plate was preincubated for 10 minutes at 30° C. and the reaction initiated by addition of 10 μl of Aurora-2. Initial reaction rates were determined with a Molecular Devices SpectraMax Plus plate reader over a 10 minute time course. IC50 and Ki data were calculated from non-linear regression analysis using the Prism software package (GraphPad Prism version 3.0cx for Macintosh, GraphPad Software, San Diego Calif., USA).

[1] = COLO 205, Colo205 cells, incubated for 72 hours
[2] = COLO 205, Colo205 cells, incubated for 96 hours

Chain of Aurora-1 (Aurora B) (Q96GD4 whole entry): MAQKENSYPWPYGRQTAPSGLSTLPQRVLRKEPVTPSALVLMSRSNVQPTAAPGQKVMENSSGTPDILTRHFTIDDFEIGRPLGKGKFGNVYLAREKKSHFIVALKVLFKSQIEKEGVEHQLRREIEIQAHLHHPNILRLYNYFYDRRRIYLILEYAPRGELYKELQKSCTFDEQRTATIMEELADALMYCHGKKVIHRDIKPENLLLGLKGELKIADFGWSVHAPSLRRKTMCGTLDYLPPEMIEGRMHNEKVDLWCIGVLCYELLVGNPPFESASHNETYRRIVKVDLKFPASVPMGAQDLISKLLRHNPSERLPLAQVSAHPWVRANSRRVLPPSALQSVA

Row | SMILES | Ki (Aurora-1 (Aurora B)) | IC50 (Colo205 cells; [1]) [nM] | Ki (Aurora-2 (Aurora A)) [nM] | IC50 (Colo205 cells; [2]) [nM] | IC50 (Colo205 cells; COLO 205, 72 h) [nM] | IC50 (Colo205 cells; COLO 205, 96 h) [nM]
1 | Cc1cc(Nc2cc(N3CC(F)(C4CC4)C3)nc(Sc3ccc(N)cc3)n2)[nH]n1 [Compound 174] | – | > 200 | – | – | – | –
2 | CCC(=O)Nc1ccc(Sc2nc(Nc3cc(C)[nH]n3)cc(N3CC(F)(C4CC4)C3)n2)cc1 [Compound 147] | – | – | 1 to 5 | – | 30 to 200 | –
3 | CCN(C)C(=O)c1ccc(Sc2nc(Nc3cc(C)[nH]n3)cc(N3CC(O)(C4CC4)C3)n2)cc1 [Compound 125] | 50 to 2000 nM | > 200 | 1 to 5 | – | – | –
4 | Cc1cc(Nc2cc(N3CC(F)(C4CC4)C3)nc(Sc3ccc4nc(CC(F)(F)F)n(C)c4c3)n2)[nH]n1 [Compound 187] | ≤ 10 nM | ≤ 30 | ≤ 1 | – | – | –
5 | Cc1cc(Nc2cc(N3CC(O)(C4CC4)C3)nc(Sc3ccc(N4CCCC4=O)cc3)n2)n[nH]1 [Compound 133] | 10 to 50 nM and < 25 nM | ≤ 30 | ≤ 1 | – | – | –
6 | Cc1cc(Nc2cc(N3CCC3)nc(Sc3ccc(NC(=O)c4ccccc4C(F)F)cc3)n2)[nH]n1 [Compound 120] | – | > 200 | – | – | – | –
7 | Cc1cc(Nc2cc(N3CC(F)(C4CC4)C3)nc(Sc3ccc(NC(=O)CCC(F)(F)F)cc3)n2)[nH]n1 [Compound 157] | – | – | – | – | ≤ 30 | ≤ 50
8 | COc1cccc(C(=O)Nc2ccc(Sc3nc(Nc4cc(C)n[nH]4)cc(N4CCC4)n3)cc2)c1 [Compound 116] | – | > 200 | – | – | – | –
9 | Cc1cc(Nc2cc(N3CC(F)(C4CC4)C3)nc(Sc3ccc(NC(=O)C4(C(F)(F)F)CC4)cc3)n2)[nH]n1 [Compound 143] | – | – | – | – | ≤ 30 | –

Now from value to compound, other results behind:

Row | Ki (Aurora-1 (Aurora B)) | IC50 (Colo205 cells; [1]) [nM] | Ki (Aurora-2 (Aurora A)) [nM] | IC50 (Colo205 cells; [2]) [nM] | SMILES | IC50 (Colo205 cells; COLO 205, 72 h) [nM] | IC50 (Colo205 cells; COLO 205, 96 h) [nM]
10 | ≤ 10 nM | ≤ 30 | ≤ 1 | – | COC1(C2CC2)CN(c2cc(Nc3cc(C)[nH]n3)nc(Sc3ccc(NC(=O)C4CC4)cc3)n2)C1 [Compound 118] | – | –
11 | 50 to 2000 nM | – | 5 to 200 | > 1000 | Cc1cc(Nc2cc(N3CCC3)nc(Sc3ccc(-n4ccccc4=O)cc3)n2)[nH]n1 [Compound 47] | – | –
12 | 10 to 50 nM | – | – | 50 to 1000 | Cc1cc(Nc2cc(N3CCC3)nc(Sc3ccc(NC(=O)c4cc(F)ccc4F)cc3)n2)n[nH]1 [Compound 45] | – | –
13 | – | – | – | 50 to 1000 | Cc1cc(Nc2cc(N3CCC3)nc(Sc3ccc(NC(=O)c4cccc(Cl)c4Cl)cc3)n2)n[nH]1 [Compound 42] | – | –
14 | ≤ 10 nM | – | ≤ 1 | 50 to 1000 | CCC(=O)Nc1ccc(Sc2nc(Nc3cc(C)n[nH]3)cc(N3CC(O)(c4ccccc4)C3)n2)cc1 [Compound 86] | – | –
15 | ≤ 10 nM | 30 to 200 | ≤ 1 | – | Cc1cc(Nc2cc(NCC3(C)COC3)nc(Sc3ccc(NC(=O)c4ccccc4Cl)cc3)n2)[nH]n1 [Compound 208] | – | –
16 | – | – | – | ≤ 50 | CCC(=O)Nc1ccc(Sc2nc(Nc3cc(C)n[nH]3)cc(N3CC(O)(CC(C)(C)C)C3)n2)cc1 [Compound 84] | – | –
17 | 10 to 50 nM and < 25 nM | – | ≤ 1 | 50 to 1000 | Cc1cc(Nc2cc(N3CC(F)(C4CC4)C3)nc(Sc3ccc4nc(C)ccc4c3)n2)[nH]n1 [Compound 154] | – | –
18 | 50 to 2000 nM | – | 1 to 5 | ≤ 50 | CCC(=O)Nc1ccc(Sc2nc(Nc3cc(C)n[nH]3)cc(N3CC(N4CCC4)C3)n2)cc1 [Compound 70] | – | –
19 | 10 to 50 nM and < 25 nM | 30 to 200 | 1 to 5 | – | Cc1cc(Nc2cc(N3CC(F)(F)C3)nc(Sc3ccc(NC(=O)CC(F)(F)F)cc3)n2)[nH]n1 [Compound 130] | – | –
20 | 10 to 50 nM | – | ≤ 1 | ≤ 50 | CC(=O)OC1(C2CC2)CN(c2cc(Nc3cc(C)n[nH]3)nc(Sc3ccc(NC(=O)C4CC4)cc3)n2)C1 [Compound 107] | – | –
21 | – | – | – | 50 to 1000 | CSc1ccccc1C(=O)Nc1ccc(Sc2nc(Nc3cc(C)[nH]n3)cc(N3CCC3)n2)cc1 [Compound 165] | – | –
